For this assay, the target named is T1, C-C chemokine receptor type 10 (Homo sapiens) (UniProt P46092).
T1 sequence (whole entry): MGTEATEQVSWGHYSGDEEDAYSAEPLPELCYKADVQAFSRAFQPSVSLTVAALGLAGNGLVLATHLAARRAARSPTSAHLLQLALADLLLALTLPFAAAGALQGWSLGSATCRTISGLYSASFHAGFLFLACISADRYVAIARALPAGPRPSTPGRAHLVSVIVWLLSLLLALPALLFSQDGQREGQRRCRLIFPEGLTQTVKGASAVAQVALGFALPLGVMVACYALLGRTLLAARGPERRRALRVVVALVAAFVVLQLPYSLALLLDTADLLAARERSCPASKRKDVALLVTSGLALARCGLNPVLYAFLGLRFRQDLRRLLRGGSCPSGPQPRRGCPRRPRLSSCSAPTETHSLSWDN
The assay is described as follows: Antagonist activity against human CCR10 expressed in human KJMGER8 cells assessed as inhibition of human recombinant CTACK-induced increase in intracellular calcium level at 100 nmol/L pre-incubated for 30 mins before human recombinant CTACK stimulation for 5 mins by FLIPR assay. In kind it is functional, cell-based.

The source of these data is ChEMBL document CHEMBL3727355, “Chemokine receptor activity regulator” (2014).

Broadly, the inhibition is how much of the control response was suppressed.

For `CCNS(=O)(=O)c1cnn2c(Nc3ccc(F)cc3C)c(C(=O)N3CCC(c4ccc(F)cc4)CC3)cnc12`, the inhibition was above 100%.
For `Cc1ccc(F)c(Nc2c(C(=O)N3CCC4(CC3)OCc3ccccc34)cnc3c(S(=O)(=O)NC(=O)NC4CC4(F)F)cnn23)c1` (stereo not drawn) the value was above 100%.
For `Cc1cc(F)ccc1Nc1c(C(=O)N2CCC(c3ccccc3)CC2)cnc2c(S(=O)(=O)NS(C)(=O)=O)cnn12` the value was 88.8%; for `CCNC(=O)NS(=O)(=O)c1cnn2c(Nc3cc(F)ccc3Cl)c(C(=O)N3CCC(c4ccc(F)cc4)CC3)cnc12`, above 100%.
For `O=CNS(=O)(=O)c1cnn2c(Nc3cc(Cl)ccc3Cl)c(C(=O)N3CCC(c4ccc(F)cc4)CC3)cnc12` the value was above 100%; for `CCC(=O)NS(=O)(=O)c1cnn2c(Nc3cc(C)ccc3Cl)c(C(=O)N3CC4(C3)CN(c3ccc(F)cc3)C4)cnc12`, 90.2%; for `CCNC(=O)NS(=O)(=O)c1cnn2c(Nc3ccc(F)cc3C)c(C(=O)N3CCC4(CC3)OCc3ccccc34)cnc12`, 92%.
For the compound `COC(=O)NS(=O)(=O)c1cnn2c(Nc3ccc(F)cc3C)c(C(=O)N3CCC(c4ccccc4)CC3)cnc12`, the inhibition is 90.7%.
On to `COCC(=O)NS(=O)(=O)c1cnn2c(Nc3ccc(F)cc3C)c(C(=O)N3CCC(c4ccccc4)CC3)cnc12`, for which the inhibition was found to be 94.2%.
Then `CC1(C(=O)NS(=O)(=O)c2cnn3c(Nc4cc(Cl)ccc4Cl)c(C(=O)N4CCC(c5ccc(F)cc5)CC4)cnc23)COC1`, with above 100%; and `CCNC(=O)NS(=O)(=O)c1cnn2c(Nc3cc(Cl)ccc3Cl)c(C(=O)N3CCC(c4ccc(F)cc4)CC3)cnc12`, with 96.7%; and `CCNC(=O)NS(=O)(=O)c1cnn2c(Nc3cc(Cl)ccc3F)c(C(=O)N3CCC(c4ccc(F)cc4)CC3)cnc12`, with above 100%.
For `CCNC(=O)NS(=O)(=O)c1cnn2c(Nc3ccc(C)cc3F)c(C(=O)N3CCC4(CC3)OCc3ccccc34)cnc12` the value was above 100%; for `CCN(CC)S(=O)(=O)c1cnn2c(Nc3ccc(F)cc3C)c(C(=O)N3CCC(c4ccccc4)CC3)cnc12`, above 100%; for `CCC(=O)NS(=O)(=O)c1cnn2c(Nc3cc(C(F)(F)F)ccc3Cl)c(C(=O)N3CCC(c4ccc(F)cc4)CC3)cnc12`, above 100%.
Then `CCC(=O)NS(=O)(=O)c1cnn2c(Nc3cc(Cl)ccc3Cl)c(C(=O)N3CCC(c4ccc(F)cc4)CC3)cnc12`, with above 100%.
For the compound `Cc1ccc(F)c(Nc2c(C(=O)N3CCC4(CC3)OCc3ccccc34)cnc3c(S(=O)(=O)NC(=O)C4CC4)cnn23)c1`, the inhibition was above 100%.
For `Cc1cc(F)ccc1Nc1c(C(=O)N2CCC(c3ccccc3)CC2)cnc2c(S(=O)(=O)NC(=O)CO)cnn12` the value was above 100%; for `Cc1cc(F)ccc1Nc1c(C(=O)N2CCC(c3ccc(F)cc3)CC2)cnc2c(S(=O)(=O)NCC(F)(F)F)cnn12`, above 100%.
Take `CCNC(=O)NS(=O)(=O)c1cnn2c(NCc3ccccc3)c(C(=O)N3CCC(c4ccccc4)CC3)cnc12`: the inhibition amounted to 95.1%.
For `O=C(NS(=O)(=O)c1cnn2c(Nc3cc(Cl)ccc3Cl)c(C(=O)N3CCC4(CC3)OCc3ccccc34)cnc12)C1CC1` the value was above 100%; for `CCNC(=O)NS(=O)(=O)c1cnn2c(Nc3ccc(Cl)cc3C)c(C(=O)N3CCC4(CC3)OCc3ccccc34)cnc12`, above 100%; for `CCNS(=O)(=O)c1cnn2c(Nc3cc(C)ccc3Cl)c(C(=O)N3CCC4(CC3)OCc3ccccc34)cnc12`, 80.3%.
For `CCC(=O)NS(=O)(=O)c1cnn2c(Nc3ccc(C)cc3Cl)c(C(=O)N3CCC(c4ccc(F)cc4)CC3)cnc12` the value was 98.3%; for `CCONS(=O)(=O)c1cnn2c(Nc3cc(Cl)ccc3Cl)c(C(=O)N3CCC(c4ccc(F)cc4)CC3)cnc12`, above 100%; for `CCC(=O)NS(=O)(=O)c1cnn2c(Nc3cc(C)ccc3Cl)c(C(=O)N3CCC(c4ccc(F)cc4)CC3)cnc12`, above 100%.
On to `CCC(=O)NS(=O)(=O)c1cnn2c(Nc3ccc(Cl)cc3Cl)c(C(=O)N3CCC(c4ccc(F)cc4)CC3)cnc12`, for which the inhibition worked out at 97%.
Consider `CCNC(=O)NS(=O)(=O)c1cnn2c(Nc3ccc(Cl)cc3Cl)c(C(=O)N3CCC(c4ccc(F)cc4)CC3)cnc12`, for which the inhibition stood at 90.7%.
In the case of `Cc1ccc(Cl)c(Nc2c(C(=O)N3CCC(c4ccc(F)cc4)CC3)cnc3c(S(=O)(=O)NC(=O)NC4CC4(F)F)cnn23)c1` (stereo not drawn), the inhibition was above 100%.
For `CCC(=O)NS(=O)(=O)c1cnn2c(Nc3cc(F)ccc3F)c(C(=O)N3CCC(c4ccc(F)cc4)CC3)cnc12` the value was above 100%; for `CC(=O)NS(=O)(=O)c1cnn2c(Nc3cc(Cl)ccc3F)c(C(=O)N3CCC(c4ccc(F)cc4)CC3)cnc12`, above 100%; for `CCC(=O)NS(=O)(=O)c1cnn2c(Nc3cc(C)ccc3Cl)c(C(=O)N3CCC4(CC3)OCc3ccccc34)cnc12`, above 100%.
For `O=C(c1cnc2c(S(=O)(=O)Nc3cccnn3)cnn2c1Nc1cc(Cl)ccc1Cl)N1CCC(c2ccc(F)cc2)CC1` the value was above 100%.
For `Cc1cc(F)ccc1Nc1c(C(=O)N2CCC(c3ccccc3)CC2)cnc2c(S(=O)(=O)NC(=O)C3CC3)cnn12` the value was 93.4%; for `CCC(=O)NS(=O)(=O)c1cnn2c(Nc3cc(C)c(F)cc3Cl)c(C(=O)N3CCC(c4ccc(F)cc4)CC3)cnc12`, above 100%.
With `O=C(NS(=O)(=O)c1cnn2c(NCc3ccccc3)c(C(=O)N3CCC(c4ccccc4)CC3)cnc12)C1CC1`, the inhibition came out at 89.4%.
Then `Cc1cc(Cl)ccc1Nc1c(C(=O)N2CCC3(CC2)OCc2ccccc23)cnc2c(S(=O)(=O)NC(=O)C3CC3)cnn12`, with above 100%.
For `O=C(NC1CC1)NS(=O)(=O)c1cnn2c(Nc3ccc(F)cc3Cl)c(C(=O)N3CCC(c4ccc(F)cc4)CC3)cnc12` the value was above 100%; for `Cc1ccc(Cl)c(Nc2c(C(=O)N3CCC4(CC3)OCc3ccccc34)cnc3c(S(=O)(=O)NC(=O)NC4CCOCC4)cnn23)c1`, 62.3%.
For `CCNC(=O)NS(=O)(=O)c1cnn2c(Nc3cc(C)ccc3Cl)c(C(=O)N3CC4(C3)CN(c3ccc(F)cc3)C4)cnc12` the value was 24.3%; for `Cc1ccc(F)c(Nc2c(C(=O)N3CCC(c4ccc(F)cc4)CC3)cnc3c(S(=O)(=O)NC(=O)NC4CC4)cnn23)c1`, above 100%; for `CCNC(=O)NS(=O)(=O)c1cnn2c(Nc3cc(C)ccc3Cl)c(C(=O)N3CCC(c4ccc(F)cc4)CC3)cnc12`, above 100%.
On to `CNCC(=O)NS(=O)(=O)c1cnn2c(Nc3ccc(F)cc3C)c(C(=O)N3CCC(c4ccccc4)CC3)cnc12`, for which the inhibition amounted to 58.8%.
For `CCNC(=O)NS(=O)(=O)c1cnn2c(Nc3ccccc3Cl)c(C(=O)N3CCC(c4ccc(F)cc4)CC3)cnc12` the value was above 100%; for `Cc1cc(F)ccc1Nc1c(C(=O)N2CCC(c3ccccc3)CC2)cnc2c(S(=O)(=O)NC(=O)N3CCOCC3)cnn12`, 85.9%; for `COC(=O)NS(=O)(=O)c1cnn2c(Nc3ccccc3Cl)c(C(=O)N3CCC(c4ccccc4)CC3)cnc12`, 99.6%.
With `CCC(=O)NS(=O)(=O)c1cnn2c(Nc3cc(Cl)ccc3Cl)c(C(=O)N3CCC4(CC3)OCc3ccccc34)cnc12`, the inhibition was above 100%.
For `O=C(c1cnc2c(S(=O)(=O)Nc3ncccn3)cnn2c1Nc1cc(Cl)ccc1Cl)N1CCC(c2ccc(F)cc2)CC1` the value was above 100%.
Then `CCNS(=O)(=O)c1cnn2c(Nc3ccc(Cl)cc3C)c(C(=O)N3CCC(c4ccc(F)cc4)CC3)cnc12`, with above 100%; and `CCNC(=O)NS(=O)(=O)c1cnn2c(Nc3ccccc3Cl)c(C(=O)N3CCC(c4ccccc4)CC3)cnc12`, with 92.4%; and `O=C(c1cnc2c(S(=O)(=O)Nc3nncs3)cnn2c1Nc1cc(Cl)ccc1Cl)N1CCC(c2ccc(F)cc2)CC1`, with above 100%.
Then `O=C(NS(=O)(=O)c1cnn2c(Nc3ccccc3Cl)c(C(=O)N3CCC(c4ccccc4)CC3)cnc12)C1CC1`, with 98.9%; and `CONS(=O)(=O)c1cnn2c(Nc3cc(Cl)ccc3Cl)c(C(=O)N3CCC(c4ccc(F)cc4)CC3)cnc12`, with above 100%.
`COCCNS(=O)(=O)c1cnn2c(Nc3ccccc3Cl)c(C(=O)N3CCC(c4ccc(F)cc4)CC3)cnc12`: the inhibition turned out to be 28.9%.
For `CCC(=O)NS(=O)(=O)c1cnn2c(Nc3cc(C)ccc3F)c(C(=O)N3CCC(c4ccc(F)cc4)CC3)cnc12` the value was above 100%; for `Cc1ccc(Cl)c(Nc2c(C(=O)N3CCC4(CC3)OCc3ccccc34)cnc3c(S(=O)(=O)NC(=O)C4(C)COC4)cnn23)c1`, above 100%; for `Cc1cc(F)ccc1Nc1c(C(=O)N2CCC(c3ccc(F)cc3)CC2)cnc2c(S(=O)(=O)NC3CC3)cnn12`, above 100%.
For `CC(=O)NS(=O)(=O)c1cnn2c(Nc3cc(Cl)ccc3Cl)c(C(=O)N3CCC(c4ccc(F)cc4)CC3)cnc12` the value was above 100%; for `CCC(=O)NS(=O)(=O)c1cnn2c(Nc3ccc(C)cc3F)c(C(=O)N3CCC4(CC3)OCc3ccccc34)cnc12`, above 100%; for `COC(=O)NS(=O)(=O)c1cnn2c(Nc3cc(C)ccc3C)c(C(=O)N3CCC(c4ccccc4)CC3)cnc12`, above 100%.
For `CCC(=O)NS(=O)(=O)c1cnn2c(Nc3ccc(F)cc3Cl)c(C(=O)N3CCC4(CC3)OCc3ccccc34)cnc12` the value was above 100%.
Consider `Cc1ccc(Cl)c(Nc2c(C(=O)N3CCC4(CC3)OCc3ccccc34)cnc3c(S(=O)(=O)NC(=O)NCC(F)(F)F)cnn23)c1`, for which the inhibition worked out at 75.3%.
For `CC(=O)NS(=O)(=O)c1cnn2c(Nc3cccc(Cl)c3Cl)c(C(=O)N3CCC(c4ccc(F)cc4)CC3)cnc12` the value was above 100%.
